Our source for the IC50 and inhibition values is patent US20070059265A1, “Benzylidene-1,3-thiazolidine-2,4-dione compounds for stimulating or inducing the growth and/or for reducing the loss and/or for increasing the density of keratin fibers” (L'OREAL, priority 2005, published 2007).

As usually defined, the IC50 is the concentration at which inhibition is half-maximal. A higher IC50 goes with lower potency. Broadly, the inhibition is the percentage by which the read-out fell short of the control.

This test deals with T1, type-1 15-PGDH (Homo sapiens, UniProt P15428).
T1 construct: made in house
T1 sequence (P15428 1-266): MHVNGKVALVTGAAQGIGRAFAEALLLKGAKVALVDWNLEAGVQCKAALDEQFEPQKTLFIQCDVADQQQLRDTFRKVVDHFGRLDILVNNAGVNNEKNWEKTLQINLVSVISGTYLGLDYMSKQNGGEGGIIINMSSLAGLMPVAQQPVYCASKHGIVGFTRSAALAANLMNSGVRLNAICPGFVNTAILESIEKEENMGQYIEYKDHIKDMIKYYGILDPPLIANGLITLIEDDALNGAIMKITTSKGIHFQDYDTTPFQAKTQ
The experiment in a line: Test on type-1 15-PGDH (spectrophotometric, 340 nm, PGE2 and β-NAD as substrates). The class given is biochemical. The following applies: 37° C.; for IC50: pH 7.4 Tris buffer, 50 μM Prostaglandin E2, 1.5 mM β-NAD. The procedure: The enzyme 15-PGDH is obtained as described in patent application FR 02/05067 filed in the name of L'Oréal, as a suspension in a medium adjusted to a concentration of 0.3 mg/mL and then blocked at −80° C. For the purposes of the test, this suspension is thawed and stored in ice.
In parallel, a 100 mM, pH 7.4 Tris buffer containing 0.1 mM of dithiothreitol (D5545, Sigma-Aldrich, L'isle D'Abeau Chesne, BP 701, 38297, Saint Quentin Fallavier), 1.5 mM of β-NAD (N6522, Sigma-Aldrich, L'isle D'Abeau Chesne, BP 701, 38297, Saint Quentin Fallavier), and 50 μM of Prostaglandin E2 (P4172, Sigma-Aldrich, L'isle D'Abeau Chesne, BP 701, 38297, Saint Quentin Fallavier) is prepared.
0.965 ml of this buffer (brought to 37° C. beforehand) is introduced into the cuvette of a spectrophotometer (Perkin-Elmer, Lambda 2) thermostatically maintained at 37° C., the measuring wavelength of which is set at 340 nm. 0.035 mL of enzymatic suspension at 37° C. is introduced into the cuvette concomitantly with the recording (corresponding to an increase in the optical density at 340 nm). The maximum reaction rate is recorded.

The compound `CC(C)(C)c1ccc(Oc2cccc(/C=C3\SC(=O)NC3=O)c2)cc1` [Compound 16] came in with an IC50 of 200 nM. This counts as sub-micromolar.

In the case of `O=C1NC(=O)/C(=C/c2ccccc2Oc2ccc(F)cc2)S1` [Compound 6], under “at 100 μM of compound, pH 7.4, read-out: % inhibition of the enzymatic activity of 15-PGDH”, the inhibition at 100 µM was 48%. `O=C1NC(=O)/C(=C/c2ccccc2Oc2ccc(Br)cc2F)S1` [Compound 10] showed an IC50 of 1550 nM.
